The values below come from patent US9309201B2, “Process for preparating ivabradine hydrochloride form IV and methods of treatment of disease using ivabradine hydrochloride form IV” (URQUIMA, S.A., priority 2011, dated 2016).

The structures appear in SMILES notation. Counter-ions that a name gives are not always drawn.

This data set in a line: Check for transformation of crystalline Form IV after tablet manufacture. The data set is classed as physicochemical. As for the experimental part:
All the components, with the exception of magnesium stearate and silica colloidal anhydrous, were mixed. Finally, silica colloidal anhydrous and magnesium stearate were added and mixed. The blend was compressed in an excentric tabletting machine.
All the components with the exception of magnesium stearate and silica colloidal anhydrous were mixed and granulated using ethanol as a granulating solvent. Then a wet calibration of the granules was performed. The obtained granules were dried followed by a dry calibration of the granules. Thereafter, silica colloidal anhydrous and magnesium stearate were added and mixed. The lubricated granulate was compressed in an eccentric tabletting machine.
Finally, tablets were coated using conventional coating agents until a weight increase of approximately 3%.

For `COc1cc2c(cc1OC)CC(=O)N(CCCN(C)C[C@H]1Cc3cc(OC)c(OC)cc31)CC2` [Form IV of ivabradine hydrochloride, ivabradine hydrochloride], where the note is “Example 26 tablets, blend compressed directly in an excentric tabletting machine”, the “transformation of the crystalline Form IV in tablets” value was “absence of any transformation”. In addition, the “transformation of the crystalline Form IV in film-coated tablets” value (Example 27 tablets, wet granulation with ethanol, drying, compression, coating to approximately 3% weight increase) is “absence of any transformation”.
